Measured values reported in patent publication US20230357189A1, “MODIFIED FLUOROQUINOLONES AND USES THEREOF” (Technion Research & Development Foundation Limited, priority 2021, published 2023).
Converted amounts (≈) assume the structure as drawn.

What was measured:
[1] = tested on: Staphylococcus Epidermidis; test: Antibacterial activity, MIC by double-microdilution method; type: cell-based; conditions: Table 2
Bacillus Subtilis = test: as above; type: cell-based; conditions: Bacillus Subtilis; for Gram-positive MIC d: Table 2; for Gram-positive MIC, DTT 0 mM / Gram-positive MIC, DTT 2 mM / Gram-positive MIC, DTT 10 mM: Table 3
[2] = tested on: supercoiled (+) pHOT-1 plasmid DNA; test: DNA cleavage assay (gel electrophoresis); type: biochemical; conditions: for DNase activity (cleavage of supercoiled plasmid, form I to form II): absence of adjuvants, HEPES buffer (50 mM, pH 7.4), 5 hours
Method: Removal of Ligands Prior to Electrophoresis was performed when more than 100 μM of Cu(II)-ligand or Co(III) ligand (at any concentration) complexes were employed that is, for DNA cleavage assays that were performed in the absence of any adjuvants. An Amberlyst® 15 (Sigma Aldrich) ion-exchange resin was prepared according to the reported literature [Hettich et al. J. Am. Chem. Soc. 1997, 119 (24), 5638-5647] and stored at −20° C. Before use, 0.5 gram of the exchanger was mixed with 250 μL of water. After stopping the DNA-cleavage reaction by addition of EDTA (54 mM, 15 minutes incubation at 37° C.), 10 μL of the exchanger suspension was added, vortexed, and incubated at 37° C. for 15 minutes before centrifugation and electrophoresis.
DNA cleavage activity of the tested Complexes towards supercoiled (+) pHOT-1 plasmid DNA (TopoGEN) was monitored by gel electrophoresis. In a typical experiment, plasmid DNA (200 ng, […]) in HEPES buffer (50 mM, pH 7.4) was mixed with different concentrations of a tested metal complex in the presence or absence of ascorbic acid (0.32 mM). All stock solutions of buffers and of the metal complexes were prepared using HPLC grade water (ChromAR®). Molecular biology reagent grade water (Sigma) was added up to a total reaction volume of 30 μL before incubation for a given time. For the ascorbic acid assays, the reaction was quenched immediately after incubation with EDTA (54 mM). For analysis, 10 μL of loading buffer (40% sucrose, 100 mM Tris-HCl (pH 7.5), 1 mM EDTA, 0.5 mg·mL^−1 bromophenol blue) was added to the incubated solution and loaded onto an agarose (SeaKem LE) gel [1% in TAE×1 buffer (40 mM Tris, 20 mM acetic acid, 1 mM EDTA)]. Electrophoresis was carried out at 60 V for 2 hours. Gels were stained with 1 μg·mL^−1 ethidium bromide for 30 minutes and de-stained in TAE×1 buffer. DNA bands were visualized with medium-range ultraviolet light using Bio-Rad Gel Doc XR+ imaging system. The quantity of different DNA forms (I or II) was estimated using ImageJ software.
Chem. 2015, 2015 (28), 4722-4730; Kashiba-Iwatsuki et al. FEBS Lett. 1996, 389 (2), 149-15].
The copper complex of compound 2 (2-Cu(II)) was used as the positive control in these assays.

Escherichia coli 25922 = test: Antibacterial activity, MIC by double-microdilution method; type: cell-based; conditions: Table 2; Escherichia coli 25922
[3] = tested on: Escherichia coli R477-100; test: as above; type: cell-based; conditions: for Gram-negative MIC a: Table 2, without DTT; for Gram-negative MIC a / Gram-negative MIC, DTT 10 mM / Gram-negative MIC, DTT 0 mM / Gram-negative MIC, DTT 2 mM: Escherichia coli R477-100; for improvement of MIC in the presence of DTT: 10 mM DTT vs without DTT, Gram-negative E. coli R477-100; for Gram-negative MIC, DTT 0 mM / Gram-negative MIC, DTT 2 mM: Table 3
E. coli DNA gyrase = target: T1, E. coli DNA gyrase (Escherichia coli, UniProt P0AES4+P0AES6); test: E. coli Gyrase-DNA supercoiling assay; type: biochemical; conditions: supercoiling of relaxed pHOT-1 plasmid in presence of ATP; 37° C., 60 minutes
T1 construct: purchased TopoGEN
Method: The DNA supercoiling reactions were based on the manufacturer protocol (TopoGEN). The amount of DNA gyrase used in each assay was optimized by testing various dilutions of the stock. The amount sufficient to supercoil 250 nanograms (ng) of the substrate in 1 hour at 37° C. was then used for testing the compounds (1.1 U as defined by manufacturer). Assays (30 μL) contained 250 nanograms of relaxed pHOT1 plasmid DNA in Tris-HCl buffer (35 mM), pH 7.5, containing KCl (24 mM), MgCl2 (4 mM), DTT (2 mM), Spermidine (1.8 mM), ATP (1 mM), 6.5% (w/v) glycerol and bovine serum albumin (0.1 mg/ml). Reactions were incubated at 37° C. for 60 minutes. Reaction mixtures were stopped by the addition of 30 μL of loading buffer (40% sucrose, 100 mM Tris·HCl (pH 7.5), 1 mM EDTA, 0.5 mg×mL^−1 bromophenol blue) and worked up using 30 μL of 24:1 chloroform/isoamyl alcohol mixture; the aqueous layer was then analyzed using electrophoresis.
Electrophoresis, gel staining, DNA visualization and DNA quantification were performed as described for the DNA cleavage assays.

T1 sequence (P0AES4 whole entry, one chain of several): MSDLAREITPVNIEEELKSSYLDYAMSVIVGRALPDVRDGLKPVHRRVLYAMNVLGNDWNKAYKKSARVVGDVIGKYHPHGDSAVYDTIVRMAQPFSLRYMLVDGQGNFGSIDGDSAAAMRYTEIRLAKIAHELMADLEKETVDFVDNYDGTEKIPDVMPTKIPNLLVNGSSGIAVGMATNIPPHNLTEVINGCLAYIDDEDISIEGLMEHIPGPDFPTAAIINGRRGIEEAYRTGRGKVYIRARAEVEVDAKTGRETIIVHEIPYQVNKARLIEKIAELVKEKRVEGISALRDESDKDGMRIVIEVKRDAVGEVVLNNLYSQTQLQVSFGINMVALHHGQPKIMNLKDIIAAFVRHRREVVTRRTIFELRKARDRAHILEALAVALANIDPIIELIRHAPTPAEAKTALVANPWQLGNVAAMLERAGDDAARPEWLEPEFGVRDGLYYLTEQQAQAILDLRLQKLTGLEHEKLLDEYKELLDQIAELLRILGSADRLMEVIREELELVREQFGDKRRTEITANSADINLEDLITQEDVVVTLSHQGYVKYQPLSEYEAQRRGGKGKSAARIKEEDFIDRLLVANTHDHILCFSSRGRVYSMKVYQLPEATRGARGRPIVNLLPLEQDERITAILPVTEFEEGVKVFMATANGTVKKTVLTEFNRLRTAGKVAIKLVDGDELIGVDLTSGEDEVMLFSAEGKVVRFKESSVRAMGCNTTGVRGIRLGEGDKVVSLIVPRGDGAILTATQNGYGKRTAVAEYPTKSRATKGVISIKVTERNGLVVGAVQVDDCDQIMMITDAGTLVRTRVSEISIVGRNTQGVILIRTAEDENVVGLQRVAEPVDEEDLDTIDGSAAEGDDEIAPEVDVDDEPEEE

SMILES: O.O=C(O)c1cn(C2CC2)c2cc(N3CCN(Cc4ccc(CN5CCNCCNCCNCC5)cc4)CC3)c(F)cc2c1=O.[Co+3].[OH-] [4-Co(III)]
- Gram-positive MIC c [1]: 6 mg/L
- Gram-positive MIC d (Bacillus Subtilis): 6 mg/L
- DNase activity at micromolar concentrations ([2]; FIG. 32: 0.2 μg DNA over 2 hours (Co(III)-cyclen, 4-Co(III)), 0.6 μg DNA over 10 hours (23-Co(III))): strong DNA binding but no DNase activity
- Gram-negative MIC b (Escherichia coli 25922): 6 mg/L
- Gram-negative MIC a [3]: 12 mg/L

SMILES: O.O=C(O)c1cn(C2CC2)c2cc(N3CCN(CCCCCCCCN4CCNCCNCCNCC4)CC3)c(F)cc2c1=O.[Co+3].[OH-] [3-Co(III)]
- Gram-positive MIC c [1]: 12 to 24 mg/L
- Gram-positive MIC d (Bacillus Subtilis): 12 mg/L
- Gram-negative MIC b (Escherichia coli 25922): 6 mg/L
- Gram-negative MIC a [3]: 12 mg/L

SMILES: O=C(O)c1cn(C2CC2)c2cc(N3CCN(CCCCCCCCN4CCNCCNCCNCC4)CC3)c(F)cc2c1=O [Compound 3]
- Gram-positive MIC c [1]: 6 mg/L
- Gram-positive MIC d (Bacillus Subtilis): 6 mg/L
- Gram-negative MIC b (Escherichia coli 25922): 12 mg/L
- Gram-negative MIC a [3]: 24 to 48 mg/L

SMILES: [Cl][Cu][Cl] [CuCl2, reference compound]
- Gram-positive MIC c [1]: >384 mg/L
- Gram-positive MIC d (Bacillus Subtilis): >384 mg/L
- Gram-negative MIC b (Escherichia coli 25922): >384 mg/L
- improvement of MIC in the presence of DTT [3]: no change whatsoever
- Gram-negative MIC a [3]: >384 mg/L

SMILES: O.O=C(O)c1cn(C2CC2)c2cc(N3CCN(Cc4ccc(CCCN5CCNCCNCCNCC5)cc4)CC3)c(F)cc2c1=O.[Cu+2] [6-Cu(II)]
- Gram-positive MIC c [1]: 3 mg/L
- IC50 (E. coli DNA gyrase): 0.09 ± 0.01 µM
- Gram-positive MIC d (Bacillus Subtilis): 6 mg/L
- DNase activity (cleavage of supercoiled plasmid, form I to form II) [2]: only very limited activity
- Gram-negative MIC b (Escherichia coli 25922): 3 mg/L
- Gram-negative MIC a [3]: 6 mg/L

SMILES: NCCN1CCNCCNCCN(Cc2ccc(CN3CCN(c4cc5c(cc4F)c(=O)c(C(=O)[O-])cn5C4CC4)CC3)cc2)CC1.[Cu+2] [23-Cu(II)]
- Gram-positive MIC c [1]: 12 mg/L
- Gram-positive MIC d (Bacillus Subtilis): 12 mg/L
- Gram-positive MIC, DTT 0 mM (Bacillus Subtilis): 12 mg/L
- Gram-positive MIC, DTT 2 mM (Bacillus Subtilis): 6 mg/L
- Gram-positive MIC, DTT 10 mM (Bacillus Subtilis): 3 mg/L
- DNase activity (cleavage of supercoiled plasmid, form I to form II) [2]: significant hydrolytic DNase activity
- Gram-negative MIC b (Escherichia coli 25922): 24 mg/L
- improvement of MIC in the presence of DTT [3]: significant improvement in antibacterial activity
- Gram-negative MIC, DTT 10 mM [3]: 3 mg/L
- Gram-negative MIC a [3]: 24 mg/L
- Gram-negative MIC, DTT 0 mM [3]: 24 mg/L
- Gram-negative MIC, DTT 2 mM [3]: 6 mg/L

SMILES: O.O=C(O)c1cn(C2CC2)c2cc(N3CCN(CCCCCCCCN4CCNCCNCCNCC4)CC3)c(F)cc2c1=O.[Cu+2] [3-Cu(II)]
- Gram-positive MIC c [1]: 6 mg/L
- Gram-positive MIC d (Bacillus Subtilis): 6 mg/L
- DNase activity (cleavage of supercoiled plasmid, form I to form II) [2]: only very limited activity
- Gram-negative MIC b (Escherichia coli 25922): 6 mg/L
- Gram-negative MIC a [3]: 12 mg/L

SMILES: NCCN1CCNCCNCCN(Cc2ccc(CN3CCN(c4cc5c(cc4F)c(=O)c(C(=O)O)cn5C4CC4)CC3)cc2)CC1 [Compound 23]
- Gram-positive MIC c [1]: 12 mg/L
- Gram-positive MIC d (Bacillus Subtilis): 6 mg/L
- Gram-positive MIC, DTT 0 mM (Bacillus Subtilis): 6 mg/L
- Gram-positive MIC, DTT 2 mM (Bacillus Subtilis): 6 mg/L
- Gram-positive MIC, DTT 10 mM (Bacillus Subtilis): 3 mg/L
- DNase activity (cleavage of supercoiled plasmid, form I to form II) [2]: significant DNase activity
- Gram-negative MIC b (Escherichia coli 25922): 24 mg/L
- MIC ([3]; E. coli R477-100, metal-free compound): 24 mg/L (≈ 37 µM)
- Gram-negative MIC, DTT 10 mM [3]: 12 mg/L
- Gram-negative MIC a [3]: 24 mg/L
- Gram-negative MIC, DTT 0 mM [3]: 24 mg/L
- Gram-negative MIC, DTT 2 mM [3]: 12 mg/L

SMILES: N=C(N)NCCN1CCNCCNCCN(CCc2ccc(CN3CCN(c4cc5c(cc4F)c(=O)c(C(=O)O)cn5C4CC4)CC3)cc2)CC1 [Compound 20]
- Gram-positive MIC c [1]: 24 mg/L
- Gram-positive MIC d (Bacillus Subtilis): 12 mg/L
- Gram-positive MIC, DTT 0 mM (Bacillus Subtilis): 12 mg/L
- Gram-positive MIC, DTT 2 mM (Bacillus Subtilis): 6 to 12 mg/L
- Gram-positive MIC, DTT 10 mM (Bacillus Subtilis): 12 mg/L
- Gram-negative MIC b (Escherichia coli 25922): 24 mg/L
- Gram-negative MIC, DTT 10 mM [3]: 24 mg/L
- Gram-negative MIC a [3]: 24 mg/L
- Gram-negative MIC, DTT 0 mM [3]: 24 mg/L
- Gram-negative MIC, DTT 2 mM [3]: 12 mg/L

SMILES: O.O=C(O)c1cn(C2CC2)c2cc(N3CCN(CCCCCCCN4CCNCCNCCNCC4)CC3)c(F)cc2c1=O.[Co+3].[OH-] [2-Co(III)]
- Gram-positive MIC c [1]: 24 mg/L
- Gram-positive MIC d (Bacillus Subtilis): 12 to 24 mg/L
- Gram-negative MIC b (Escherichia coli 25922): 6 mg/L
- Gram-negative MIC a [3]: 12 mg/L

SMILES: N=C(N)NCCN1CCNCCNCCN(CCCc2ccc(CN3CCN(c4cc5c(cc4F)c(=O)c(C(=O)O)cn5C4CC4)CC3)cc2)CC1 [Compound 21]
- Gram-positive MIC c [1]: 6 mg/L
- Gram-positive MIC d (Bacillus Subtilis): 6 mg/L
- Gram-positive MIC, DTT 0 mM (Bacillus Subtilis): 12 mg/L
- Gram-positive MIC, DTT 2 mM (Bacillus Subtilis): 12 mg/L
- Gram-positive MIC, DTT 10 mM (Bacillus Subtilis): 6 mg/L
- Gram-negative MIC b (Escherichia coli 25922): 12 mg/L
- Gram-negative MIC, DTT 10 mM [3]: 6 mg/L
- Gram-negative MIC a [3]: 12 mg/L
- Gram-negative MIC, DTT 0 mM [3]: 12 mg/L
- Gram-negative MIC, DTT 2 mM [3]: 6 mg/L

SMILES: N=C(N)NCCN1CCNCCNCCN(Cc2ccc(CN3CCN(c4cc5c(cc4F)c(=O)c(C(=O)O)cn5C4CC4)CC3)cc2)CC1 [Compound 19]
- Gram-positive MIC c [1]: 6 mg/L
- Gram-positive MIC d (Bacillus Subtilis): 6 mg/L
- Gram-positive MIC, DTT 0 mM (Bacillus Subtilis): 6 mg/L
- Gram-positive MIC, DTT 2 mM (Bacillus Subtilis): 6 to 12 mg/L
- Gram-positive MIC, DTT 10 mM (Bacillus Subtilis): 6 mg/L
- DNase activity (cleavage of supercoiled plasmid, form I to form II) [2]: significant DNase activity
- Gram-negative MIC b (Escherichia coli 25922): 12 mg/L
- Gram-negative MIC, DTT 10 mM [3]: 12 mg/L
- Gram-negative MIC a [3]: 12 mg/L
- Gram-negative MIC, DTT 0 mM [3]: 12 mg/L
- Gram-negative MIC, DTT 2 mM [3]: 12 mg/L

SMILES: NCCN1CCNCCNCCN(CCCCc2ccc(CN3CCN(c4cc5c(cc4F)c(=O)c(C(=O)O)cn5C4CC4)CC3)cc2)CC1 [Compound 26]
- Gram-positive MIC c [1]: 6 mg/L
- Gram-positive MIC d (Bacillus Subtilis): 6 mg/L
- Gram-positive MIC, DTT 0 mM (Bacillus Subtilis): 6 mg/L
- Gram-positive MIC, DTT 2 mM (Bacillus Subtilis): 6 mg/L
- Gram-positive MIC, DTT 10 mM (Bacillus Subtilis): 6 mg/L
- Gram-negative MIC b (Escherichia coli 25922): 12 mg/L
- Gram-negative MIC, DTT 10 mM [3]: 12 mg/L
- Gram-negative MIC a [3]: 12 mg/L
- Gram-negative MIC, DTT 0 mM [3]: 12 mg/L
- Gram-negative MIC, DTT 2 mM [3]: 6 mg/L

SMILES: O.O=C(O)c1cn(C2CC2)c2cc(N3CCN(CCCCCCN4CCNCCNCCNCC4)CC3)c(F)cc2c1=O.[Co+3].[OH-] [1-Co(III)]
- Gram-positive MIC c [1]: 24 mg/L
- Gram-positive MIC d (Bacillus Subtilis): 12 mg/L
- Gram-negative MIC b (Escherichia coli 25922): 12 mg/L
- Gram-negative MIC a [3]: 12 mg/L
